pKd: −log10 of the molar value.
Assays:
[1] = target: GDP-bound KRAS wild-type protein (Homo sapiens, UniProt P01116); assay: Binding to KRAS by surface plasmon resonance (SPR), Single Cycle Kinetics; conditions: SPR Single Cycle Kinetics, GDP-bound KRAS wild-type protein, 1:1 binding model; read-out: KRAS KD
[2] = target: GDP-bound NRAS wild-type protein (Homo sapiens, UniProt P01111); assay: Binding to NRAS by surface plasmon resonance (SPR), Single Cycle Kinetics; conditions: SPR, GDP-bound NRAS wild-type protein vs GDP-bound KRAS wild-type protein
[3] = target: GDP-bound HRAS wild-type protein (Homo sapiens, UniProt P01112); assay: Binding to HRAS by surface plasmon resonance (SPR), Single Cycle Kinetics; conditions: SPR, GDP-bound HRAS wild-type protein vs GDP-bound KRAS wild-type protein
Sequence of GDP-bound HRAS wild-type protein (P01112 whole entry): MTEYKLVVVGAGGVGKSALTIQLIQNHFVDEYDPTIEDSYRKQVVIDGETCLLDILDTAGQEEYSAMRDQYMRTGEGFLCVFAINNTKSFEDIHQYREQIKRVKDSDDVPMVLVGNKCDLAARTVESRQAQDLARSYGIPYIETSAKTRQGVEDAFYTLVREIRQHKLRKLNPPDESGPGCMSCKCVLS

Sequence of GDP-bound NRAS wild-type protein (P01111 whole entry): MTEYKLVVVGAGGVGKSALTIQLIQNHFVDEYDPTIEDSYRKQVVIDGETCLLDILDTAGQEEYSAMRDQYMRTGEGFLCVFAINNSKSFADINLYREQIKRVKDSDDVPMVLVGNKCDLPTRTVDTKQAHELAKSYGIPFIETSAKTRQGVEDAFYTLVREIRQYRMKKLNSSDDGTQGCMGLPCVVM
Sequence of GDP-bound KRAS wild-type protein (P01116 whole entry): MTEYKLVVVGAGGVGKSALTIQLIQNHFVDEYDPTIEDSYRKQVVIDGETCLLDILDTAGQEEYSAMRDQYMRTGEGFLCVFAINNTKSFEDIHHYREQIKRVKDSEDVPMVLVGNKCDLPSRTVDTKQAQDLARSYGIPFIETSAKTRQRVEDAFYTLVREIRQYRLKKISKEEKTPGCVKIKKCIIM

`CC[C@H](C)[C@@H]1NC(=O)[C@H](C)N(C)C(=O)C[C@@H](C(=O)N(C)C)N(C)C(=O)[C@H](C2CCCC2)N(C)C(=O)C2(CCCC2)NC(=O)[C@@H]2CC(F)(F)CN2C(=O)[C@H](CCc2cc(F)c(C(F)(F)F)c(F)c2)NC(=O)CN(C)C(=O)[C@H](Cc2ccc(C(F)(F)F)cc2)N2CCCCC[C@@H](C2=O)N(C)C(=O)CN(C)C1=O` [PP0472] was tested. Which pKd [1] did it give?
The pKd was 9.11.

And the “NRAS/KRAS (ratio of KD value with respect to NRAS to KD value with respect to KRAS)” value [2]?
Its value is “B (a compound having 3 or more and less than 10 is denoted as B)”.

And the “HRAS/KRAS (ratio of KD value with respect to HRAS to KD value with respect to KRAS)” value [3]?
The value was “B (a compound having 3 or more and less than 10 is denoted as B)”.

`CC[C@H](C)[C@@H]1NC(=O)[C@H](C)N(C)C(=O)C[C@@H](C(=O)N(C)C)N(C)C(=O)[C@H](C2CCCC2)N(C)C(=O)C2(CCC2)NC(=O)[C@@H]2CC(F)(F)CN2C(=O)[C@H](CCc2cc(F)c(C(F)(F)F)c(F)c2)NC(=O)CN(C)C(=O)[C@H](Cc2ccc(C(F)(F)F)cc2)N2CCCCC[C@@H](C2=O)N(C)C(=O)CN(C)C1=O` [PP0473] was tested. Which pKd [1] did it give?
The pKd was 9.25.

What about the “NRAS/KRAS (ratio of KD value with respect to NRAS to KD value with respect to KRAS)” value [2] of the same molecule?
Its value is “C (A compound having a KD ratio of 0.1 or more and less than 3 is denoted as C)”.

What about the “HRAS/KRAS (ratio of KD value with respect to HRAS to KD value with respect to KRAS)” value [3] of the same molecule?
The value was “C (A compound having a KD ratio of 0.1 or more and less than 3 is denoted as C)”.

How did the pKd [1] turn out when `CCO[C@@H]1C[C@H]2C(=O)NC3(CCC3)C(=O)N(C)[C@@H](C3CCCC3)C(=O)N(C)[C@H](C(=O)N3CCOCC3)CC(=O)N(C)[C@@H](C)C(=O)N[C@@H]([C@@H](C)CC)C(=O)N(C)CC(=O)N(C)[C@H]3CCCCCN(C3=O)[C@@H](Cc3ccc(C(F)(F)F)cc3)C(=O)N(C)CC(=O)N[C@@H](CCc3cc(F)c(C(F)(F)F)c(F)c3)C(=O)N2C1` [PP0474] was run?
The pKd was 9.20.

What about the “NRAS/KRAS (ratio of KD value with respect to NRAS to KD value with respect to KRAS)” value [2] of the same molecule?
The value was “B (a compound having 3 or more and less than 10 is denoted as B)”.

And the “HRAS/KRAS (ratio of KD value with respect to HRAS to KD value with respect to KRAS)” value [3]?
The value was “B (a compound having 3 or more and less than 10 is denoted as B)”.

`CCO[C@@H]1C[C@H]2C(=O)NC3(CCCC3)C(=O)N(C)[C@@H](C3CCCC3)C(=O)N(C)[C@H](C(=O)N(C)C)CC(=O)N(C)[C@@H](C)C(=O)N[C@@H]([C@@H](C)CC)C(=O)N(C)CC(=O)N(C)[C@H]3CCCCCN(C3=O)[C@@H](Cc3ccc(C(F)(F)F)cc3)C(=O)N(C)CC(=O)N[C@@H](CCc3cc(F)c(C(F)(F)F)c(F)c3)C(=O)N2C1` [PP0475] was tested. Which pKd [1] did it give?
Its pKd is 9.34.

What about the “NRAS/KRAS (ratio of KD value with respect to NRAS to KD value with respect to KRAS)” value [2] of the same molecule?
The value was “B (a compound having 3 or more and less than 10 is denoted as B)”.

And the “HRAS/KRAS (ratio of KD value with respect to HRAS to KD value with respect to KRAS)” value [3]?
The value was “B (a compound having 3 or more and less than 10 is denoted as B)”.

With `CCO[C@@H]1C[C@H]2C(=O)NC3(CCC3)C(=O)N(C)[C@@H](C3CCCC3)C(=O)N(C)[C@H](C(=O)N(C)C)CC(=O)N(C)[C@@H](C)C(=O)N[C@@H]([C@@H](C)CC)C(=O)N(C)CC(=O)N(C)[C@H]3CCCCCN(C3=O)[C@@H](Cc3ccc(C(F)(F)F)cc3)C(=O)N(C)CC(=O)N[C@@H](CCc3cc(F)c(C(F)(F)F)c(F)c3)C(=O)N2C1` [PP0476] as the molecule, how does the pKd [1] read?
The pKd was 9.70.

And the “NRAS/KRAS (ratio of KD value with respect to NRAS to KD value with respect to KRAS)” value [2]?
Its value is “B (a compound having 3 or more and less than 10 is denoted as B)”.

What about the “HRAS/KRAS (ratio of KD value with respect to HRAS to KD value with respect to KRAS)” value [3] of the same molecule?
The value was “B (a compound having 3 or more and less than 10 is denoted as B)”.

`CC[C@H](C)[C@@H]1NC(=O)[C@H](CC(C)C)N(C)C(=O)C[C@@H](C(=O)N2CCOCC2)N(CC)C(=O)[C@H](C2CCCC2)N(C)C(=O)C2(CCCC2)NC(=O)[C@@H]2CCCN2C(=O)[C@H](CCc2cc(F)c(C(F)(F)F)c(F)c2)NC(=O)CN(C)C(=O)[C@H](Cc2ccc(C(F)(F)F)cc2)N2CCCCC[C@@H](C2=O)N(C)C(=O)CN(C)C1=O` [PP0477] was tested. Which pKd [1] did it give?
Its pKd is 7.96.

And the “NRAS/KRAS (ratio of KD value with respect to NRAS to KD value with respect to KRAS)” value [2]?
The value was “A (a compound having 10 or more and less than 20 is denoted as A)”.

What about the “HRAS/KRAS (ratio of KD value with respect to HRAS to KD value with respect to KRAS)” value [3] of the same molecule?
Its value is “A (a compound having 10 or more and less than 20 is denoted as A)”.

`CC[C@H](C)[C@@H]1NC(=O)[C@H](CC(C)C)N(C)C(=O)C[C@@H](C(=O)N2CCOCC2)NC(=O)[C@H](C2CCCC2)N(C)C(=O)C2(CCCC2)NC(=O)[C@@H]2CCCN2C(=O)[C@H](CCc2cc(F)c(C(F)(F)F)c(F)c2)NC(=O)CN(C)C(=O)[C@H](Cc2ccc(C(F)(F)F)cc2)N2CCCCC[C@@H](C2=O)N(C)C(=O)CN(C)C1=O` [PP0479] was tested. Which pKd [1] did it give?
The pKd was 7.54.

And the “NRAS/KRAS (ratio of KD value with respect to NRAS to KD value with respect to KRAS)” value [2]?
The value was “B (a compound having 3 or more and less than 10 is denoted as B)”.

And the “HRAS/KRAS (ratio of KD value with respect to HRAS to KD value with respect to KRAS)” value [3]?
Its value is “B (a compound having 3 or more and less than 10 is denoted as B)”.

How did the pKd [1] turn out when `CC[C@H](C)[C@@H]1NC(=O)[C@H](CC(C)C)N(C)C(=O)C[C@@H](C(=O)N2CCOCC2)N(C)C(=O)[C@H](C2CCCC2)N(C)C(=O)C2(CCCC2)NC(=O)[C@@H]2CCCN2C(=O)[C@H](CCc2cc(F)c(C(F)(F)F)c(F)c2)NC(=O)CN(C)C(=O)[C@H](Cc2ccc(C(F)(F)F)cc2)N2CCCCC[C@@H](C2=O)N(C)C(=O)[C@H](C)NC1=O` [PP0481] was run?
The pKd was 6.07.

And the “NRAS/KRAS (ratio of KD value with respect to NRAS to KD value with respect to KRAS)” value [2]?
Its value is “B (a compound having 3 or more and less than 10 is denoted as B)”.

And the “HRAS/KRAS (ratio of KD value with respect to HRAS to KD value with respect to KRAS)” value [3]?
Its value is “B (a compound having 3 or more and less than 10 is denoted as B)”.

What does the source list for `CC[C@H](C)[C@@H]1NC(=O)[C@H](CC(C)C)N(C)C(=O)C[C@@H](C(=O)N2CCOCC2)N(C)C(=O)[C@H](C2CCCC2)N(C)C(=O)C2(CCCC2)NC(=O)[C@@H]2CCCN2C(=O)[C@H](CCc2cc(F)c(C(F)(F)F)c(F)c2)NC(=O)CN(C)C(=O)[C@H](Cc2ccc(C(F)(F)F)cc2)N2CCCCC[C@@H](C2=O)N(C)C(=O)CN(CC)C1=O` [PP0483]?
pKd [1]: 7.47; NRAS/KRAS (ratio of KD value with respect to NRAS to KD value with respect to KRAS) [2]: B (a compound having 3 or more and less than 10 is denoted as B); HRAS/KRAS (ratio of KD value with respect to HRAS to KD value with respect to KRAS) [3]: B (a compound having 3 or more and less than 10 is denoted as B)

What does the source list for `CC[C@H](C)[C@@H]1NC(=O)[C@H](CC(C)C)N(C)C(=O)C[C@@H](C(=O)N2CCOCC2)N(C)C(=O)[C@H](C2CCCC2)N(C)C(=O)C2(CCCC2)NC(=O)[C@@H]2CCCN2C(=O)[C@H](CCc2cc(F)c(C(F)(F)F)c(F)c2)NC(=O)CN(C)C(=O)[C@H](Cc2ccc(C(F)(F)F)cc2)N2CCCCC[C@@H](C2=O)N(C)C(=O)[C@@H]2CCN2C1=O` [PP0484]?
pKd [1]: 8.49; NRAS/KRAS (ratio of KD value with respect to NRAS to KD value with respect to KRAS) [2]: A (a compound having 10 or more and less than 20 is denoted as A); HRAS/KRAS (ratio of KD value with respect to HRAS to KD value with respect to KRAS) [3]: B (a compound having 3 or more and less than 10 is denoted as B)

Which results are given for `CC[C@H](C)[C@@H]1NC(=O)[C@H](CC(C)C)N(C)C(=O)C[C@@H](C(=O)N2CCOCC2)N(C)C(=O)[C@H](C2CCCC2)N(C)C(=O)C2(CCCC2)NC(=O)[C@@H]2CCCN2C(=O)[C@H](CCc2cc(F)c(C(F)(F)F)c(F)c2)NC(=O)CN(C)C(=O)[C@H](Cc2ccc(C(F)(F)F)cc2)N2CCCCC[C@@H](C2=O)N(C)C(=O)[C@@H]2CCCN2C1=O` [PP0485]?
pKd [1]: 7.55; NRAS/KRAS (ratio of KD value with respect to NRAS to KD value with respect to KRAS) [2]: A (a compound having 10 or more and less than 20 is denoted as A); HRAS/KRAS (ratio of KD value with respect to HRAS to KD value with respect to KRAS) [3]: B (a compound having 3 or more and less than 10 is denoted as B)

With `CC[C@H](C)[C@@H]1NC(=O)[C@H](C)N(C)C(=O)C[C@@H](C(=O)N2CCOCC2)N(C)C(=O)[C@H](C2CCCC2)N(C)C(=O)C2(CCCC2)NC(=O)[C@@H]2CCCN2C(=O)[C@H](CCc2cc(F)c(C(F)(F)F)c(F)c2)NC(=O)CN(C)C(=O)[C@H](Cc2ccc(C(F)(F)F)cc2)N2CCCCC[C@@H](C2=O)N(C)C(=O)CN(C)C1=O` [PP0487] as the molecule, how does the pKd [1] read?
Its pKd is 8.77.

And the “NRAS/KRAS (ratio of KD value with respect to NRAS to KD value with respect to KRAS)” value [2]?
Its value is “B (a compound having 3 or more and less than 10 is denoted as B)”.

And the “HRAS/KRAS (ratio of KD value with respect to HRAS to KD value with respect to KRAS)” value [3]?
The value was “B (a compound having 3 or more and less than 10 is denoted as B)”.

With `CC[C@H](C)[C@@H]1NC(=O)[C@H](CC)N(C)C(=O)C[C@@H](C(=O)N2CCOCC2)N(C)C(=O)[C@H](C2CCCC2)N(C)C(=O)C2(CCCC2)NC(=O)[C@@H]2CCCN2C(=O)[C@H](CCc2cc(F)c(C(F)(F)F)c(F)c2)NC(=O)CN(C)C(=O)[C@H](Cc2ccc(C(F)(F)F)cc2)N2CCCCC[C@@H](C2=O)N(C)C(=O)CN(C)C1=O` [PP0488] as the molecule, how does the pKd [1] read?
Its pKd is 8.55.

What about the “NRAS/KRAS (ratio of KD value with respect to NRAS to KD value with respect to KRAS)” value [2] of the same molecule?
The value was “A (a compound having 10 or more and less than 20 is denoted as A)”.

And the “HRAS/KRAS (ratio of KD value with respect to HRAS to KD value with respect to KRAS)” value [3]?
The value was “B (a compound having 3 or more and less than 10 is denoted as B)”.

With `CC[C@H](C)[C@@H]1NC(=O)[C@H](CC(C)C)N(C)C(=O)C[C@@H](C(=O)N2CCOCC2)N(C)C(=O)[C@H](C2CCCC2)N(C)C(=O)C2(CCCC2)NC(=O)[C@@H]2CCCN2C(=O)[C@H](CCc2cc(F)c(C(F)(F)F)c(F)c2)NC(=O)CN(C)C(=O)[C@H](Cc2ccc(C(F)(F)F)cc2)N2CCCCC[C@@H](C2=O)N(C)C(=O)CN(C)C1=O` [PP0490] as the molecule, how does the pKd [1] read?
Its pKd is 8.62.

And the “NRAS/KRAS (ratio of KD value with respect to NRAS to KD value with respect to KRAS)” value [2]?
Its value is “B (a compound having 3 or more and less than 10 is denoted as B)”.

And the “HRAS/KRAS (ratio of KD value with respect to HRAS to KD value with respect to KRAS)” value [3]?
The value was “B (a compound having 3 or more and less than 10 is denoted as B)”.
